Six compounds from patent publication US9169259B2, “Imidazopyridazine compounds” (Hoffmann-La Roche Inc., priority 2011, dated 2015) can be followed below.

This experiment has as its target recombinant human SYK360-635 (Homo sapiens (Human), UniProt P43405). Briefly: SYK kinase assay (33P ATP filtration, IC50 of SYK inhibition). In kind it is biochemical. The settings on record: truncated SYK aa 360-635 0.5 nM, ATP 20 μM, peptide 5 μM, 30° C. 15 min; read-out: ENZYME_FILTRATION_IC50. Here is the method:
Determination of IC50 of Spleen Tyrosine Kinase (SYK) Inhibition:
SYK kinase assay is a standard kinase assay adapted to a 96 well plate format. This assay is performed in 96-well format for IC50 determination with […] which represented 10 half log dilutions and a 40 μL reaction volume. The assay measures the incorporation of radiolabeled ^33P γATP into an N-terminally biotinylated peptide substrate, derived from naturally occurring phosphoacceptor consensus sequence (Biotin-11aa DY*E). Phosphorylated products were detected upon termination of reactions with EDTA and the addition of Streptavidin coated beads.
Assay plates: 96-well MultiScreen 0.65 um filter plates (Millipore Cat. No.: MADVNOB10)
final concentration: 50 mM HEPES pH7.5
BSA: Bovine Serum Albumin Fraction V, fatty acid free (Roche Diagnostics GmbH, Cat. No. 9100221) diluted to a final concentration of 0.1%
Assay Dilution Buffer (ADB): 50 mM HEPES, 0.1 mM EGTA, 0.1 mM Na Vanadate, 0.1 mM β-glycerophosphate, 10 mM MgCl2, 1 mM DTT, 0.1% BSA, pH 7.5
Bead wash buffer: 10 g/L PBS (Phosphate buffered saline) with 2M NaCl+1% phosphoric acid.
DMSO and the mixture was incubated for 10 min at RT.
The kinase reaction was initiated by the addition of 10 μL 4× substrate cocktail containing the DYE peptide substrate [0 or 5 μM], ATP [20 μM] and ^33PγATP [2 μCi/r×n]. After incubation at 30° C. for 15 min, the reaction was terminated by the transfer of 25 μL of the reaction sample to a 96 well 0.65 μm Millipore MADVNOB membrane/plate containing 200 μL 5 mM EDTA and 20% Streptavidine coated beads in PBS.
After the last wash membrane/plates were transferred to an adaptor plate, heat dried for 15 min at 60° C., and 50 μL scintillation cocktail was added to each well and 4 h later the amount of radioactivity was counted in a top counter.

SMILES strings stand for the structures.

Regarding `CC1CCCN1c1cccc(Nc2cc(-c3cccc(OCCN4CCOCC4)c3)nn3ccnc23)n1` (stereo not drawn) [Example I-88, [6-(2-Methyl-pyrrolidin-1-yl)-pyridin-2-yl]-{6-[3-(2-morpholin-4-yl-ethoxy)-phenyl]-imidazo[1,2-b]pyridazin-8-yl}-amine], the IC50 was 0.051 µM. On to `CC1CCCN1c1cccc(Nc2cc(-c3ccc(OCCN4CCOCC4)cc3)nn3ccnc23)n1` (stereo not drawn) [Example I-90, [6-(2-Methyl-pyrrolidin-1-yl)-pyridin-2-yl]-{6-[4-(2-morpholin-4-yl-ethoxy)-phenyl]-imidazo[1,2-b]pyridazin-8-yl}-amine], for which the IC50 amounted to 0.157 µM. As for `CCN(CC)CCOc1cccc(-c2cc(Nc3cccc(N4CCCC4C)n3)c3nccn3n2)c1` (stereo not drawn) [Example I-91, {6-[3-(2-Diethylamino-ethoxy)-phenyl]-imidazo[1,2-b]pyridazin-8-yl}-[6-(2-methyl-pyrrolidin-1-yl)-pyridin-2-yl]-amine], the IC50 worked out at 0.261 µM.

For the compound `CCN(CC)CCOc1ccc(-c2cc(Nc3cccc(N4CCCC4C)n3)c3nccn3n2)cc1` (stereo not drawn) [Example I-92, {6-[4-(2-Diethylamino-ethoxy)-phenyl]-imidazo[1,2-b]pyridazin-8-yl}-[6-(2-methyl-pyrrolidin-1-yl)-pyridin-2-yl]-amine], the IC50 is 0.0606 µM.

For `COc1ccc(Nc2cc(-c3cccc(C(=O)O)c3)nn3ccnc23)nc1OC` [Example I-95, 3-[8-(5,6-Dimethoxy-pyridin-2-ylamino)-imidazo[1,2-b]pyridazin-6-yl]-benzoic acid], the IC50 came out at 0.949 µM. To `CNC(=O)c1ccc(NC(=O)c2cccc(-c3cc(Nc4ccc(OC)c(OC)n4)c4nccn4n3)c2)cc1` [Example I-96, 3-(8-(5,6-Dimethoxypyridin-2-ylamino)imidazo[1,2-b]pyridazin-6-yl)-N-(4-(methylcarbamoyl)phenyl)benzamide] belongs 0.103 µM.
